We go through five compounds from patent US8580780B2, “6 substituted 2, 3,4,5 tetrahydro-1H-benzo[d]azepines as 5-HT2C receptor agonist” (Eli Lilly and Company, priority 2004, dated 2013).

One may read the melting point as the temperature, or range, at which the solid turns liquid.

One data set can be described thus: Nestlet shredding. Format: in vivo, male NIH Swiss mice. Particulars: mice, 30 min. The text has this:
Mice naturally will construct nests of material available in their living environment. Since this behavior is obsessive in nature, it has been used to model OCD (Xia Li, Denise Morrow and Jeffrey M. Witkin, “Decreases in nestlet shredding of mice by serotonin uptake inhibitors: comparison with marble burying”, Psychopharmacology, submitted Jul. 14, 2003). House experimentally-naïve male, NIH Swiss mice (Harlan Sprague-Dawley, Indianapolis, Ind.) weighing between 28-35g in groups of 12 for at least three days prior to testing in a vivarium with a 12 h light/dark cycle. Conduct experiments during the light cycle in an experimental room with normal overhead fluorescent lighting. Dose mice with vehicle or test compound and after a specified pretreatment interval (generally 30 min.), place the mice individually in a 17×28×12 cm high plastic tub with about 5 mm sawdust shavings on the floor along with a pre-weighed multi-ply gauze pad (51 mm square). After 30 min., weigh the remainder of the game pad not removed by the mouse. Determine the weight of the gauze used for nestlet construction by subtraction. Compare the results for test compound treated mice to the results for vehicle control treated mice with Dunnett's test.
Clinically effective OCD treatment standard compounds suppress nestlet shredding at doses that are devoid of motor-impairing effects as measured by the rotorod test. […]

Data set [1] can be described thus: Schedule-induced polydipsia. Format: in vivo, Wistar rats. The source says: Food-deprived rats exposed to intermittent presentations of food will drink amounts of water that are far in excess of their normal daily intake and in excess of their intake when given all of their food at one time (Falk J L. “Production of polydipsia in normal rats by an intermittent food schedule”, Science 133: 195-196, (1961)). This excessive behavior is persistent and has been used to model OCD.
Maintain Wistar rats on a food restricted diet (to maintain 85% free feeding weight), but with free access to water. Train the rats in a behavioral testing chamber to press a lever to receive a food pellet under a fixed interval schedule, such that the rats are rewarded with a 45 mg food pellet the first time they press a lever after a 120 second interval has elapsed. The fixed interval is then reset to 120 seconds and the process repeated. Thus, during a 90 min. test session, the rats can earn a maximum of 45 pellets. The behavioral chamber is also equipped with a water bottle that is weighed before and after the session to determine the amount of water consumed.
Administer test compounds on Tuesdays and Fridays. […] Compare the rates of lever pressing and water consumption for each animal's performance during sessions after test compound treatment with that animal's performance during control sessions, expressed as a percent of the control rate. […]

Another data set in a line: Marble burying assay. Format: in vivo, male NIH Swiss mice. The note with it: mice, 30 min session, with rotorod check. The source says: Marble burying in mice has been used to model anxiety disorders including obsessive-compulsive disorders (OCD) due to ethological study of the behavior (e.g. Gyertyan I. “Analysis of the marble burying response: Marbles serve to measure digging rather than evoke burying”, Behavioural Pharmacology 6: 24-31, (1995)) and due to the pharmacological effects of clinical standards (c.f., Njung'E K. Handley S L. “Evaluation of marble-burying behavior as a model of anxiety”, Pharmacology, Biochemistry & Behavior. 38: 63-67, (1991)); Borsini F., Podhorna J., and Marazziti, D. “Do animal models of anxiety predict anxiolytic effects of antidepressants?”, Psychopharmacology 163: 121-141, (2002)).
House experimentally-naïve male, NIH Swiss mice (Harlan Sprague-Dawley, Indianapolis, Ind.) weighing between 28-35g in groups of 12 for at least three days prior to testing in a vivarium with 12 h light and dark cycles. Conduct experiments during the light cycle in a dimly lit experimental testing room. Dose mice with vehicle or test compound and, after a specified pretreatment interval (generally 30 min.), place each mouse individually on a rotorod (Ugo Basile 7650) operating at a speed of 6 revolutions/min. and observe for falling. […]
Clinically effective standard compounds suppress marble burying at doses that are devoid of motor-impairing effects as measured on the rotorod. […]
Background: In the rotarod test animals must keep their balance on a rotating rod.

For data set [2] the following is noted: rat, in vivo; cited from earlier work.
The conditions of data set [3]: mouse, in vivo; cited from earlier work.

Regarding `C[C@H](N)Cc1ccccc1` [d-amphetamine], the nestlet shredding result in the data set “Nestlet shredding” is “decreases nestlet shredding only at doses that produce motoric side effects”. The “Effect on polydipsia with co-administration of 5-HT2C antagonist” value in data set [1] (rat, in vivo) is “not prevented by the 5HT2C receptor antagonist”. The “schedule-induced polydipsia (excessive drinking)” value in data set [1] (rats, 90 min session) is recorded as “decreases excessive drinking only at behaviorally stimulating doses”.
In the case of `Clc1ccc2c(c1SCc1ccccn1)CCNCC2.O=C(O)CCC(=O)O`, the melting point fell in the range of 159 to 160 °C.
With `CN(C)CCCN1c2ccccc2Sc2ccc(Cl)cc21` [chlorpromazine], in “Marble burying assay”, the marble burying behavior entry was “decrease marble burying only at doses that also disrupt rotorod performance”.
Consider `CN(C)CCCN1c2ccccc2CCc2ccc(Cl)cc21` [chlomipramine], for which the “schedule-induced polydipsia (clinically effective OCD standards)” value in data set [2] was “suppress schedule-induced polydipsia without producing notable changes in motor patterns, food intake, or behavior the following day”.
Consider `CNCCC(Oc1ccc(C(F)(F)F)cc1)c1ccccc1` (centres unmarked) [fluoxetine], for which, in data set [3], the “marble burying (clinical standards, literature)” value is on record as “decrease burying”. The “schedule-induced polydipsia (clinically effective OCD standards)” value in data set [2] is “suppress schedule-induced polydipsia without producing notable changes in motor patterns, food intake, or behavior the following day”.
